Results: publication PMC7731379, “Withanolide-Type Steroids from Withania aristata as Potential Anti-Leukemic Agents” (Molecules, 2020)
Like-named read-outs stand apart in the source and are kept apart here.

How the values were obtained:
[1] = test system: Vero (African green monkey kidney) cell line; assay: MTT cell viability assay, non-tumoral Vero cells; conditions: read-out: Cytotoxic activity IC50, Vero; MTT, 48 h incubation; mean ± SD of three independent experiments
Method: (§1) HL-60 (human promyelocytic leukemia cell line) and Vero (African green monkey kidney) cell lines from American Type Culture Collection (ATCC-LGC) were each grown in Dulbecco’s modified Eagle’s medium (DMEM) with 4.5 g/L glucose (Sigma-Aldrich), supplemented with 10% fetal bovine serum (Gibco), 1% of a penicillin–streptomycin mixture (10.000 and 10 mg/mL, respectively), and 200 mM L-glutamine. Cells were maintained at 37 °C in 5% CO2 and 98% humidity.
(§2) Viable cells were assessed using the colorimetric MTT [3-(4,5-dimethylthiazol-2-yl)-2,5-diphenyl tetrazolium bromide reduction assay [49]. A cell suspension (1 × 10^4 /200 μL/well) in log-phase of growth seeded in DMEM, supplemented with 5% fetal bovine serum in microtiter well plates (96 wells, Iwaki, London, UK) were added to compounds predissolved in dimethylsulphoxide (DMSO) at different concentrations. After 48 h of incubation, 20 μL/well of the MTT solution (5 mg/mL in phosphate buffered saline, PBS) were added and plates incubated for 4 h at 37 °C. Subsequently, the medium/MTT solutions were removed carefully by aspiration and replaced with 150 μL/well of DMSO to dissolve the formazan crystals. Absorbance was measured in a microplate reader (Infinite M200, Tecan) at a wavelength of 550 nm. Solvent control cultures were considered 100% and percentage of viable treated cells were plotted against compound concentrations. The 50% cell viability value (IC50) was calculated from the curve. Each experiment was performed at least three times in triplicates. Data are given in arithmetic means ± SD. Selectivity ratio was defined as IC50 value for the tumoral cell line divided by IC50 value for the Vero cell line.

[2] = test system: HL-60 (human promyelocytic leukemia cell line); assay: MTT cell viability (antiproliferative) assay, HL-60; conditions: for SI (selectivity index): Vero (IC50) on HL-60 (IC50); for IC50: mean ± SD of three independent experiments
Method: as §1, §2

[3] = MTT cell viability assay, non-tumoral Vero cells; conditions: African green monkey, Vero cells (African green monkey kidney, non-tumoral)
Method: as §1, §2

[4] = in vitro; conditions: African green monkey
Method: as §1, §2

[5] = test system: HL-60 (human promyelocytic leukemia cell line); conditions: 48 h
Method: as §1, §2

[6] = test system: Vero (African green monkey kidney) cell line; conditions: 48 h
Method: as §1, §2

[7] = read-out: Cytotoxic activity IC50, HL 60, MTT, 48 h incubation
[8] = Cytotoxic activity IC50, Vero, MTT, 48 h incubation, mean ± SD of three independent experiments
[9] = Homo sapiens, HL-60, 48 h, read-out: Cytotoxic activity IC50, HL 60, MTT, 48 h incubation

Row | Compound | SI (selectivity index) [2] | IC50 [2, 9] | IC50 at 48 h ([4]; Cytotoxic activity IC50, Vero) | other results
1 | 4β,16β,27-trihydroxy-1-oxo-witha-2,5,17(20),24-tetraenolide [Compound 9] | 1.7 |  |  | IC50 [1]: 25.7 ± 0.65 µM; IC50 [2, 7]: 14.8 ± 0.68 µM
2 | 4β,16β-dihydroxy-1-oxo-witha-2,5,17(20),24-tetraenolide [Compound 10] | >2.4 |  |  | IC50 [1]: > 40 µM; IC50 [2, 7]: 16.8 ± 0.75 µM
3 | 16β,27-dihydroxy-1,4-dioxo-witha-2,5,17(20),24-tetraenolide [Compound 11] | >1.4 |  |  | IC50 [1]: > 40 µM; IC50 [2, 7]: 27.8 ± 0.45 µM
4 | CC1=C(CO)C(=O)OC(C(C)C2(O)CCC3C4CC(O)C56C=CC(OO5)C(=O)C6(C)C4CCC32C)C1 (stereo not drawn) [Compound 1, 6β,17α,27-Trihydroxy-2α,5α-dioxan-1-oxo-witha-3,24-dien-26,22-olide] | >3.1 |  |  | IC50 at 48 h [3]: > 40 µM; IC50 [2, 7]: 12.8 ± 0.24 µM
5 | CC1=C(CO)C(=O)OC(C(C)C2(O)CCC3C4CC(O)C56C=CC(OO5)C(=O)C6(C)C4CCC32C)C1 (stereo not drawn) [Compound 2, 6β,17α,27-Trihydroxy-2β,5β-dioxan-1-oxo-witha-3,24-dien-26,22-olide] | >1.5 |  |  | IC50 [1]: > 40 µM; IC50 [2, 7]: 26.7 ± 0.6 µM
6 | CC1=C(CO)C(=O)OC(C(C)C2CCC3C4CC(O)C56C=CC(OO5)C(=O)C6(C)C4CCC23C)C1 (stereo not drawn) [Compound 3, 6β,27-Dihydroxy-2α,5α-dioxan-1-oxo-witha-3,24-dien-26,22-olide] | 4.9 | 3.3 ± 0.45 µM |  | IC50 at 48 h [3, 8]: 16 ± 0.73 µM
7 | CC1=C(CO)C(=O)OC(C(C)C2=CCC3C4CC(O)C56C=CC(OO5)C(=O)C6(C)C4CCC23C)C1 (stereo not drawn) [Compound 4, 6β,27-Dihydroxy-2α,5α-dioxan-1-oxo-witha-3,16,24-trien-26,22-olide] | 5.1 | 6.2 ± 0.1 µM |  | IC50 at 48 h [3, 8]: 31.6 ± 0.08 µM
8 | CC1=C(CO)C(=O)OC(C(C)C2=CCC3C4CC=C5C(O)C=CC(=O)C5(C)C4CCC23C)C1 (stereo not drawn) [Compound 5, 4β,27-dihydroxy-1-oxo-witha-2,5,16,24-tetraenolide] | 0.8 | 8.2 ± 0.09 µM | 6.4 ± 0.12 µM | 
9 | CC1=C(C)C(=O)OC(C(C)C2=CCC3C4CC=C5C(O)C=CC(=O)C5(C)C4CCC23C)C1 (stereo not drawn) [Compound 6, 4β-hydroxy-1-oxo-witha-2,5,16,24-tetraenolide] | 1.6 | 7 ± 0.55 µM | 11.5 ± 0.09 µM | 
10 | CC1=C(CO)C(=O)OC(C(C)C2CCC3C4CC=C5C(O)C=CC(=O)C5(C)C4CCC23C)C1 (stereo not drawn) [Compound 7, 4β,27-dihydroxy-1-oxo-witha-2,5,24-trien olide] | >2.6 | 15.7 ± 0.04 µM | > 40 µM | 
11 | CC1=C(CO)C(=O)OC(C(C)C2=CCC3C4CC=C5C(=O)C=CC(=O)C5(C)C4CCC23C)C1 (stereo not shown) [Compound 8, 27-hydroxy-1,4-dioxo-witha-2,5,16,24-tetraenolide] | 3.7 | 4.2 ± 0.25 µM | 15.5 ± 0.35 µM | 
12 | CC1=C(CO)C(=O)OC(C(C)C2(O)CCC3C4CC=C5C(O)C=CC(=O)C5(C)C4CCC32C)C1 (stereo not drawn) [Compound 12, 4α,17α,27-trihydroxy-1-oxo-witha-2,5,24-trienolide] | >6.1 | 6.6 ± 0.14 µM | > 40 µM | fold more potent than the β-disposition (13) ([2]; HL-60, versus 13): 2 fold
13 | CC1=C(CO)C(=O)OC(C(C)C2(O)CCC3C4CC=C5C(O)C=CC(=O)C5(C)C4CCC32C)C1 (stereo not drawn) [Compound 13, 4β,17α,27-trihydroxy-1-oxo-witha-2,5,24-trienolide] | 1.9 |  |  | IC50 [5]: 12.3 ± 0.11 µM; IC50 [6]: 23.8 ± 0.41 µM
14 | CC1=C(CO)C(=O)O[C@@H]([C@@H](C)[C@H]2CC[C@H]3[C@@H]4C[C@H]5O[C@]56[C@@H](O)C=CC(=O)[C@]6(C)[C@H]4CC[C@]23C)C1 [Compound 14, withaferin A] | 33.0 |  |  | IC50 at 48 h [3, 8]: 6.4 ± 0.21 µM; IC50 [2, 7]: 0.2 ± 0.02 µM; IC50 ([2]; read-out: Cytotoxic activity IC50, HL 60, MTT, 48 h incubation, listed as WA): ≤ 0.5 µM
15 | CC1=C(C)C(=O)OC(C(C)C2CCC3C4CC5OC56C(O)C=CC(=O)C6(C)C4CCC23C)C1 (stereo not drawn) [Compound 15, 5β,6β-epoxy-4β-hydroxy-1-oxo-witha-2,24-dienolide] |  | ≤ 0.5 µM | 4.6 ± 0.09 µM | IC50 [5]: 0.5 ± 0.07 µM
16 | CC(=O)OCC1=C(C)CC(C(C)C2CCC3C4CC5OC56C(O)C=CC(=O)C6(C)C4CCC23C)OC1=O (stereo not shown) [Compound 16, 27-acetyl-withaferin A] |  | ≤ 0.5 µM | 5.7 ± 0.13 µM | IC50 [5]: 0.4 ± 0.06 µM
17 | CC1=C(CO)C(=O)OC(C(C)=C2C(O)CC3C4CC5OC56C(O)C=CC(=O)C6(C)C4CCC23C)C1 (stereo not drawn) [Compound 18, 5β,6β-epoxy-4β,16β,27-trihydroxy-1-oxo-witha-2,17(20),24-trienolide] | 4.2 | 8.2 ± 0.43 µM | 34.7 ± 0.75 µM | 
18 | CC1=C(CO)C(=O)O[C@@H]([C@@H](C)C2=CC[C@H]3[C@@H]4C[C@H]5O[C@]56[C@@H](O)C=CC(=O)[C@]6(C)[C@H]4CC[C@]23C)C1 [Compound 19, witharistatin] | 3.8 | ≤ 0.5 µM |  | IC50 [5]: 0.5 ± 0.05 µM; IC50 at 48 h [4]: 1.9 ± 0.08 µM
19 | CC1=C(C)C(=O)OC(C(C)C2=CCC3C4CC5OC56C(O)C=CC(=O)C6(C)C4CCC23C)C1 (stereo not shown) [Compound 20, 27-deoxy-16-en-withaferin A] | 2.2 | 4.6 ± 0.35 µM | 10 ± 0.61 µM | 
20 | CC1=C(C)C(=O)OC(C(C)C2CC=C3C4CC5OC56C(O)C=CC(=O)C6(C)C4CCC32C)C1 (stereo not drawn) [Compound 21, 5β,6β-epoxy-4β-hydroxy-1-oxo-22R-witha-2,14,24-trienolide] | 6.9 | 0.9 ± 0.05 µM | 6.2 ± 0.11 µM | 
21 | CC1=C(CO)C(=O)OC(C(C)C2CCC3C4CC5OC56C(=O)C=CC(=O)C6(C)C4CCC23C)C1 (stereo not shown) [Compound 22, 4-dehydro-withaferin A] | 24.1 | 0.7 ± 0.09 µM | 16.9 ± 0.7 µM | 
22 | CC1=C(CO)C(=O)OC(C(C)C2(O)CCC3C4CC5OC56C(O)C=CC(=O)C6(C)C4CCC32C)C1 (stereo not drawn) [Compound 23, 5β,6β-epoxy-4β,17α,27-trihydroxy-1-oxo-witha-2,24-dienolide] | >6.2 | 6.5 ± 0.55 µM | > 40 µM | 
23 | CC1=C(CO)C(=O)O[C@@H]([C@@H](C)[C@H]2CC[C@H]3[C@@H]4C[C@H]5O[C@]56[C@@H](O)[C@@H](O)CC(=O)[C@]6(C)[C@H]4CC[C@]23C)C1 [Compound 24, viscosalactone B] |  | > 40 µM |  | IC50 at 48 h [3, 8]: > 40 µM
24 | CC(=O)OCC1=C(C)CC(C(C)C2CCC3C4CC5OC56C(O)C(O)CC(=O)C6(C)C4CCC23C)OC1=O (stereo not shown) [Compound 25, 27-O-acetyl-viscosalactone B] | 7.9 | 1.5 ± 0.54 µM | 11.8 ± 0.1 µM | fold more potent than its corresponding hydroxyl derivative 24 ([2]; HL-60 cytotoxic effect, versus 24): 26 fold
25 | CC1=C(CO)C(=O)OC(C(C)C2CCC3C4CC(O)C5(O)C(O)C=CC(=O)C5(C)C4CCC23C)C1 (stereo not shown) [Compound 26, 2,3-dehydrosomnifericin] | >3.0 | 13.4 ± 0.85 µM | > 40 µM | 
26 | CC1=C(CO)C(=O)OC(C(C)C2CCC3C4CC(Cl)C5(O)C(O)C=CC(=O)C5(C)C4CCC23C)C1 (stereo not drawn) [Compound 27, 6α-chloro-5β-hydroxywithaferin A] | 7.1 | 1.1 ± 0.2 µM | 7.8 ± 0.36 µM | fold more potent than its corresponding hydroxyl derivative 26 ([2]; HL-60 cytotoxic effect, versus 26): 12 fold
27 | CC1=C(CO)C(=O)OC(C(C)C2CCC3C4CC(O)C5(C=O)C=CC(=O)C5(C)C4CCC23C)C1 (stereo not drawn) [Compound 28, 4β-formyl-6β,27-dihydroxy-1-oxo-witha-2,24-dienolide] | >1.3 | 30.5 ± 0.45 µM |  | IC50 at 48 h [3]: > 40 µM
28 | CC1=C(CO)C(=O)OC(C(C)C2CCC3C4CC(O)C5(C=O)CCC(=O)C5(C)C4CCC23C)C1 (stereo not drawn) [Compound 29, 4β-formyl-6β,27-dihydroxy-1-oxo-witha-24-enolide] | >2.1 | 19.2 ± 0.84 µM |  | IC50 at 48 h [3, 8]: > 40 µM
29 | COc1cc([C@@H]2c3cc4c(cc3[C@@H](O[C@@H]3O[C@@H]5CO[C@@H](C)O[C@H]5[C@H](O)[C@H]3O)[C@H]3COC(=O)[C@H]23)OCO4)cc(OC)c1O [Etoposide, reference compound] | 8.2 | 2.4 ± 0.1 µM |  | IC50 at 48 h [3, 8]: 19.5 ± 0.16 µM
